IC50 data for two substances are collected here from patent publication US7393871B2, “Anionic and neutral complexes of ruthenium (II) with nitrogen oxide” (Siega S.R.L., priority 2003, dated 2008).

Test [1] concerns MCF-7, a human hormone dependent mammary carcinoma cell line. The test can be described thus: Cytotoxicity, cell viability (MTU test) on MCF-7 cells. It counts as cell-based. The conditions noted are these: medium with 5% FCS. As to the method: (§1) The cytotoxicity of the ruthenium complexes prepared in Example 4 and 7 was tested on two significative tumor cell lines: MCF-7, a human hormone dependent mammary carcinoma cell line and TS/A, a murine adenocarcinoma cell line. At day 0 4000 TS/A cells and 5000 MCF-7 cells were sown in 96-welled dishes In 200 μl of culture medium. The culture medium used was RPMI medium supplemented with 10% FCS for the TS/A line and a mixture 1:1 of DMEM and F12 medium supplemented with 10% FCS for MCF-7. At day 1 the culture medium was removed and substituted with an identical medium containing 5% FCS only (control) or 5% FCS and the test compound (complex of example 4 or example 7) at the following concentrations: 0.1 μM, 1 μM, 3 μM, 10 μM, 30 μM, 100 μM, 300 μM, 600 μM and 1000 μM.
(§2) After 24, 48 and 72 hours cell viability was evaluated with a MTU test.

Test [2] relates to TS/A, a murine adenocarcinoma cell line. The test can be described thus: Cytotoxicity, cell viability (MTU test) on TS/A cells. It counts as cell-based. The following applies: medium with 5% FCS. As for the experimental part: as §1, §2
The mark [3] stands for this setting: 24 hours exposure, read-out: IC50 MCF-7 24 hours.
[4] abbreviates: 48 hours exposure, read-out: IC50 MCF-7 48 hours.
Setting [5] is: 72 hours exposure, read-out: IC50 MCF-7 72 hours.
[6] abbreviates: 24 hours exposure, read-out: IC50 TSA 24 hours.
Where [7] appears, read: 48 hours exposure, read-out: IC50 TSA 48 hours.
[8] abbreviates: 72 hours exposure, read-out: IC50 TSA 72 hours.

Like-named read-outs stand apart in the source and are kept apart here.

By IC50 is commonly meant the concentration that gives 50% inhibition. With “[ImH][trans-Ru^IICl4(Me2SO—O)NO] [Complex of Ex. 4]”, the IC50 in test [1] (setting [3]) was determined as 764 µM; in test [1] (setting [4]), 118 µM; in test [1] (setting [5]), 26 µM; in test [2] (setting [6]), 155 µM; in test [2] (setting [7]) it was 20 µM; in test [2] (setting [8]), 17 µM.
As to “[Im2H][trans-Ru^IICl4(Im)NO] [Complex of Ex. 7]”, the IC50 in test [1] (setting [3]) was 532 µM; in test [1] (setting [4]), 143 µM; in test [1] (setting [5]) it was 18 µM; in test [2] (setting [6]) it was 141 µM; in test [2] (setting [7]), 39 µM; in test [2] (setting [8]), 33 µM.
